In the oligonucleotide strings, read from the 5' end, every base follows the letter of its sugar. An asterisk marks phosphorothioate; unmarked linkages are phosphodiester. Other units and linkages are bracketed, terminal groups are in braces. A string of capitals states the bases alone. {NAG37} = tridentate N-acetyl-galactosamine targeting ligand, structure (NAG37)s; [invAb] = inverted abasic unit; m = 2'-O-methyl; f = 2'-fluoro
How the values were obtained:
[1] = tested on: ANGPTL3 gene; experiment: Example 7: serum HDL in mice; assay type: in vivo; set-up: key: ratio: (level/pre-treatment day -1 level) ÷ mean of D5W control group; settings: 0.5 mg/kg single SC injection day 1, female C57bl/6 mice, n=3, ratio to D5W control
Procedure: (§1) To further assess the in vivo activity of additional ANGPTL3 RNAi agents that are designed to target position 304 on the ANGPTL3 gene, six- to eight-week-old female C57bl/6 mice were used. Pre-dose serum samples were taken at day −1 after a four hour fast. At day 1, each mouse was given a single subcutaneous administration of 200 μl containing 0.5 mg/kg (mpk) of an ANGPTL3 RNAi agent in D5W (dextrose in 5% water), or control (D5W) with no RNAi agent, according to the dosing groups recited in Table 31.
(§2) Each of the RNAi agents included a modified sequence and an N-acetyl-galactosamine-containing targeting ligand conjugated to the 5′ terminal end of the sense strand. (See Tables 3, 4, and 5 for modified sequences and targeting ligand structures). The injections were performed between the skin and muscle (i.e. subcutaneous injections) into the loose skin over the neck and shoulder area. Three (3) mice in each group were tested (n=3). Serum was collected on days 8, 15, 22, and 29. Mice were fasted for four hours prior to each collection. ANGPTL3 protein levels in serum were measured by ELISA assay (R&D Systems), according to the manufacturer's recommendations. Triglycerides, total cholesterol, high-density lipoprotein (HDL), and low-density lipoprotein (LDL) in serum were measured on a Cobas® Integra 400 (Roche Diagnostics), according to the manufacturer's recommendations.
(§3) The ANGPTL3 protein levels, triglyceride levels, total cholesterol levels, HDL levels, and LDL levels for each animal were normalized. For normalization, the level of ANGPTL3 protein, triglyceride, HDL, and total cholesterol, respectively, for each animal at a time point, was divided by the pre-treatment level of expression in that animal (in this case at day −1) to determine the ratio of expression “normalized to pre-treatment.” Expression at a specific time point was then normalized to the D5W control group by dividing the “normalized to pre-treatment” ratio for an individual animal by the mean “normalized to pretreatment” ratio of all mice in the D5W control group.

[2] = tested on: ANGPTL3 gene; experiment: Example 7: serum LDL in mice; assay type: in vivo; set-up: key: ratio: (level/pre-treatment day -1 level) ÷ mean of D5W control group; settings: 0.5 mg/kg single SC injection day 1, female C57bl/6 mice, n=3, ratio to D5W control
Procedure: as §1, §2, §3

[3] = tested on: ANGPTL3 protein; experiment: Example 7: serum ANGPTL3 protein by ELISA in mice; assay type: in vivo, C57bl/6 mice; set-up: key: ratio: (level/pre-treatment day -1 level) ÷ mean of D5W control group
Procedure: as §1, §2, §3

[4] = tested on: ANGPTL3 gene; experiment: Example 7: serum triglycerides in mice; assay type: in vivo, C57bl/6 mice; set-up: key: ratio: (level/pre-treatment day -1 level) ÷ mean of D5W control group
Procedure: as §1, §2, §3

[5] = tested on: ANGPTL3 gene; experiment: Example 7: serum total cholesterol in mice; assay type: in vivo, C57bl/6 mice; set-up: key: ratio: (level/pre-treatment day -1 level) ÷ mean of D5W control group
Procedure: as §1, §2, §3

[6] = tested on: ANGPTL3 protein; experiment: Example 4: serum ANGPTL3 protein by ELISA in mice; assay type: in vivo, C57bl/6 mice; settings: for Avg ANGPTL3 (Average ANGPTL3 Protein Normalized to Pre-Treatment and Control): 1.0 mg/kg single subcutaneous dose on day 1, serum, female C57bl/6 mice
Procedure: as §1, with “To” for “To further”, “of” for “of additional”, “additional positions” for “position 304”, “containing either 1 mg/kg (mpk) or” for “containing”, “17.” for “31.”
as §2, with “22, 29,” for “22,”, “day 43 (Groups 1-3, 9, and 11-13 only).” for “29.”, “Triglycerides,” for “Triglycerides, total cholesterol,”, “total cholesterol” for “low-density lipoprotein (LDL)”
(§4) The ANGPTL3 protein levels, triglyceride levels, HDL levels, and total cholesterol levels for each animal were normalized. For normalization, the level of ANGPTL3 protein, triglyceride, HDL, and total cholesterol, respectively, for each animal at a time point, was divided by the pre-treatment level of expression in that animal (in this case at day −1) to determine the ratio of expression “normalized to pre-treatment.” Expression at a specific time point was then normalized to the D5W control group by dividing the “normalized to pre-treatment” ratio for an individual animal by the mean “normalized to pretreatment” ratio of all mice in the D5W control group.

[7] = tested on: ANGPTL3 gene; experiment: Example 4: serum HDL in mice; assay type: in vivo, C57bl/6 mice
Procedure: as §1, with “To” for “To further”, “of” for “of additional”, “additional positions” for “position 304”, “containing either 1 mg/kg (mpk) or” for “containing”, “17.” for “31.”
as §2, with “22, 29,” for “22,”, “day 43 (Groups 1-3, 9, and 11-13 only).” for “29.”, “Triglycerides,” for “Triglycerides, total cholesterol,”, “total cholesterol” for “low-density lipoprotein (LDL)”
as §4

[8] = tested on: ANGPTL3 gene; experiment: Example 4: serum triglycerides in mice; assay type: in vivo
Procedure: as §1, with “To” for “To further”, “of” for “of additional”, “additional positions” for “position 304”, “containing either 1 mg/kg (mpk) or” for “containing”, “17.” for “31.”
as §2, with “22, 29,” for “22,”, “day 43 (Groups 1-3, 9, and 11-13 only).” for “29.”, “Triglycerides,” for “Triglycerides, total cholesterol,”, “total cholesterol” for “low-density lipoprotein (LDL)”
as §4

[9] = tested on: ANGPTL3 gene; experiment: Example 4: serum total cholesterol in mice; assay type: in vivo, C57bl/6 mice
Procedure: as §1, with “To” for “To further”, “of” for “of additional”, “additional positions” for “position 304”, “containing either 1 mg/kg (mpk) or” for “containing”, “17.” for “31.”
as §2, with “22, 29,” for “22,”, “day 43 (Groups 1-3, 9, and 11-13 only).” for “29.”, “Triglycerides,” for “Triglycerides, total cholesterol,”, “total cholesterol” for “low-density lipoprotein (LDL)”
as §4

[10] = tested on: ANGPTL3 gene; experiment: Example 4: serum LDL in mice; assay type: in vivo, C57bl/6 mice; settings: for Avg LDL, normalized to pre-treatment and control: 1.0 mg/kg single SC injection on day 1, serum, n=3
Procedure: as §1, with “To” for “To further”, “of” for “of additional”, “additional positions” for “position 304”, “containing either 1 mg/kg (mpk) or” for “containing”, “17.” for “31.”
as §2, with “22, 29,” for “22,”, “day 43 (Groups 1-3, 9, and 11-13 only).” for “29.”, “Triglycerides,” for “Triglycerides, total cholesterol,”, “total cholesterol” for “low-density lipoprotein (LDL)”
as §4

[11] = Day 8, 0.5 mg/kg single SC injection on day 1, n=3
[12] = Day 15, 0.5 mg/kg single SC injection on day 1, n=3
[13] = Day 22, 0.5 mg/kg single SC injection on day 1, n=3
[14] = Day 29, 0.5 mg/kg single SC injection on day 1, n=3
[15] = Day 8, 1.0 mg/kg single SC injection on day 1, n=3
[16] = Day 15, 1.0 mg/kg single SC injection on day 1, n=3
[17] = Day 22, 1.0 mg/kg single SC injection on day 1, n=3
[18] = Day 29, 1.0 mg/kg single SC injection on day 1, n=3
[19] = Day 43, 1.0 mg/kg single SC injection on day 1, n=3

Substance: AD05777: RNAi agent duplex: antisense AM07235-AS, sense AM07610-SS (antisense UACUGAUCAAAUAUGUUGAGC; sense GCUCAACNUNUUUGAUCAGUA; (NAG37)s GalNAc ligand; RNAi agent antisense strand modified sequence; RNAi agent sense strand modified sequence; modified_base 8, 10 n = 2′-O-methyl-2-aminoadenosine-3′-phosphate)
- Avg HDL, normalized to pre-treatment and control ([1]; Day 8): 0.784
- Avg HDL, normalized to pre-treatment and control ([1]; Day 15): 0.768
- Avg HDL, normalized to pre-treatment and control ([1]; Day 22): 0.801
- Avg HDL, normalized to pre-treatment and control ([1]; Day 29): 1.008
- Avg LDL, normalized to pre-treatment and control ([2]; Day 8): 0.886
- Avg LDL, normalized to pre-treatment and control ([2]; Day 15): 0.869
- Avg LDL, normalized to pre-treatment and control ([2]; Day 22): 0.966
- Avg LDL, normalized to pre-treatment and control ([2]; Day 29): 1.224
- Avg ANGPTL3, normalized to pre-treatment and control [3, 11]: 0.297
- Avg ANGPTL3, normalized to pre-treatment and control [3, 12]: 0.246
- Avg ANGPTL3, normalized to pre-treatment and control [3, 13]: 0.257
- Avg ANGPTL3, normalized to pre-treatment and control [3, 14]: 0.345
- Avg TG, normalized to pre-treatment and control [4, 11]: 0.755
- Avg TG, normalized to pre-treatment and control [4, 12]: 0.702
- Avg TG, normalized to pre-treatment and control [4, 13]: 0.700
- Avg TG, normalized to pre-treatment and control [4, 14]: 0.648
- Avg Total Chol, normalized to pre-treatment and control [5, 11]: 0.797
- Avg Total Chol, normalized to pre-treatment and control [5, 12]: 0.800
- Avg Total Chol, normalized to pre-treatment and control [5, 13]: 0.794
- Avg Total Chol, normalized to pre-treatment and control [5, 14]: 0.995

Substance: AD05487: RNAi agent duplex: antisense AM07233-AS, sense AM07232-SS (antisense mU*fA*mC*fUmGfAmUfCmAfAmAfUmAfUmGfUmUfGmAfG*mU; sense {NAG37}*[invAb]*mAmCmUmCmAmAmCmAfUfAfUmUmUmGmAmUmCmAmGmUmA*[invAb])
- Avg ANGPTL3 (Average ANGPTL3 Protein Normalized to Pre-Treatment and Control) ([6]; Day 8): 0.173
- Avg ANGPTL3 (Average ANGPTL3 Protein Normalized to Pre-Treatment and Control) ([6]; Day 15): 0.170
- Avg ANGPTL3 (Average ANGPTL3 Protein Normalized to Pre-Treatment and Control) ([6]; Day 22): 0.138
- Avg ANGPTL3 (Average ANGPTL3 Protein Normalized to Pre-Treatment and Control) ([6]; Day 29): 0.226
- Avg ANGPTL3 (Average ANGPTL3 Protein Normalized to Pre-Treatment and Control) ([6]; Day 43): 0.477
- ANGPTL3 protein normalized to pre-treatment and control ([6]; day 15, single 1 mg/kg subcutaneous, C57bl/6 mice): 0.170
- ANGPTL3 protein normalized to pre-treatment and control ([6]; day 22, single 1 mg/kg subcutaneous, C57bl/6 mice): 0.138
- knockdown of ANGPTL3 protein ([6]; days 15 and 22, single 1 mg/kg subcutaneous, C57bl/6 mice): ~75%
- Avg HDL, normalized to pre-treatment and control [7, 15]: 0.716
- Avg HDL, normalized to pre-treatment and control [7, 16]: 0.918
- Avg HDL, normalized to pre-treatment and control [7, 17]: 0.658
- Avg HDL, normalized to pre-treatment and control [7, 18]: 0.745
- Avg HDL, normalized to pre-treatment and control [7, 19]: 0.934
- Avg TG (Average Triglycerides Normalized to Pre-Treatment and Control) ([8]; Day 8, 1.0 mg/kg single subcutaneous dose on day 1, female C57bl/6 mice): 0.776
- Avg TG (Average Triglycerides Normalized to Pre-Treatment and Control) ([8]; Day 15, 1.0 mg/kg single subcutaneous dose on day 1, female C57bl/6 mice): 0.912
- Avg TG (Average Triglycerides Normalized to Pre-Treatment and Control) ([8]; Day 22, 1.0 mg/kg single subcutaneous dose on day 1, female C57bl/6 mice): 0.761
- Avg TG (Average Triglycerides Normalized to Pre-Treatment and Control) ([8]; Day 29, 1.0 mg/kg single subcutaneous dose on day 1, female C57bl/6 mice): 0.556
- Avg TG (Average Triglycerides Normalized to Pre-Treatment and Control) ([8]; Day 43, 1.0 mg/kg single subcutaneous dose on day 1, female C57bl/6 mice): 0.757
- Avg Total Chol, normalized to pre-treatment and control [9, 15]: 0.728
- Avg Total Chol, normalized to pre-treatment and control [9, 16]: 0.944
- Avg Total Chol, normalized to pre-treatment and control [9, 17]: 0.697
- Avg Total Chol, normalized to pre-treatment and control [9, 18]: 0.560
- Avg Total Chol, normalized to pre-treatment and control [9, 19]: 0.923
- Avg LDL, normalized to pre-treatment and control ([10]; Day 8): 0.916
- Avg LDL, normalized to pre-treatment and control ([10]; Day 15): 1.125
- Avg LDL, normalized to pre-treatment and control ([10]; Day 22): 0.845
- Avg LDL, normalized to pre-treatment and control ([10]; Day 29): 0.744
- Avg LDL, normalized to pre-treatment and control ([10]; Day 43): 0.989
- LDL levels reduced ([10]; day 29, single 1 mg/kg subcutaneous, C57bl/6 mice): ~20%

Reference: patent US12729377B2, “RNAi agents and compositions for inhibiting expression of angiopoietin-like 3 (ANGPTL3), and methods of use” (Arrowhead Pharmaceuticals, Inc., priority 2017, dated 2026)
